In patent publication US20230381154A1, “TREATMENT OF BREAST CANCER USING COMBINATION THERAPIES COMPRISING GDC-9545 AND ABEMACICLIB OR RIBOCICLIB” (Genentech, Inc., priority 2021, published 2023):
One block for each molecule: values may come before it.

Legend:
[1] = system: endocrine-resistant tumors; conditions: cited from earlier work
CDK4 = CDK4 (Homo sapiens, UniProt P11802); conditions: cited from earlier work
[2] = system: ER+ metastatic breast cancer; conditions: frontline patients, NCT01602380; cited from earlier work
xenograft models = assay: xenograft models, efficacy; format: in vivo; conditions: fulvestrant dosed according to a clinically relevant dosing scheme
Text: (§1) Furthermore, the lower plasma protein binding of GDC-9545 provides higher free concentration of GDC-9545 than fulvestrant.

[3] = plasma protein binding and free concentration, GDC-9545 versus fulvestrant; format: in vitro ADME
Text: as §1

wild-type ER = biological target: T1, wild-type ER (Homo sapiens, UniProt P03372); assay: in vitro cell and biochemical assays, wild-type context
T1 sequence (P03372 1-595): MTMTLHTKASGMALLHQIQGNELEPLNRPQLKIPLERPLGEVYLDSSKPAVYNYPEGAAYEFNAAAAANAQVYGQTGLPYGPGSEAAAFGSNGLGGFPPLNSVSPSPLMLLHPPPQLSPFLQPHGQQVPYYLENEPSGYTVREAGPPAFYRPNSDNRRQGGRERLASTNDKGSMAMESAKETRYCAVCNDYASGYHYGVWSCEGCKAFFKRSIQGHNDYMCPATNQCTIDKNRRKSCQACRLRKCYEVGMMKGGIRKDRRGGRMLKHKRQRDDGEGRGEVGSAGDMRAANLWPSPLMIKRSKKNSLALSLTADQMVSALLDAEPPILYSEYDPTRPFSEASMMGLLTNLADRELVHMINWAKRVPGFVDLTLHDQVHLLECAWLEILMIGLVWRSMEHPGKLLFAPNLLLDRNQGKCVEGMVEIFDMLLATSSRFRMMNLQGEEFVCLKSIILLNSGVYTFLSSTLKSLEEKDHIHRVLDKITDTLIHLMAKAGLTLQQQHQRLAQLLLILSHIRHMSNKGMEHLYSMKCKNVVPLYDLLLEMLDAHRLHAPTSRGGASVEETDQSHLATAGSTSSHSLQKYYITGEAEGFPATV
Text: as §1

ESR1-mutant = assay: in vitro cell and biochemical assays, ESR1-mutant context
Text: as §1

[4] = human steady-state total drug exposure, GDC-9545 versus fulvestrant; format: in vivo; conditions: GDC-9545 30 mg QD versus fulvestrant 500 mg IM monthly
Text: as §1

CDK4, sequence (P11802 whole entry): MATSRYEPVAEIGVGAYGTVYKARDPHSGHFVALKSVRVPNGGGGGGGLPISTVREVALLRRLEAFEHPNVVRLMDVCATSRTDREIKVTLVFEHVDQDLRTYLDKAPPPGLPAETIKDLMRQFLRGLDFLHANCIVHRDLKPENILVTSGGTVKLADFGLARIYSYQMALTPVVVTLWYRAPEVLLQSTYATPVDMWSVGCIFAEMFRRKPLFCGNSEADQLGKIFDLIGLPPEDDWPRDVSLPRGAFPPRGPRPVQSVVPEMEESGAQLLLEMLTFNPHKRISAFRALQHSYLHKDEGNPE
CDK4, sequence (P24385 whole entry partner): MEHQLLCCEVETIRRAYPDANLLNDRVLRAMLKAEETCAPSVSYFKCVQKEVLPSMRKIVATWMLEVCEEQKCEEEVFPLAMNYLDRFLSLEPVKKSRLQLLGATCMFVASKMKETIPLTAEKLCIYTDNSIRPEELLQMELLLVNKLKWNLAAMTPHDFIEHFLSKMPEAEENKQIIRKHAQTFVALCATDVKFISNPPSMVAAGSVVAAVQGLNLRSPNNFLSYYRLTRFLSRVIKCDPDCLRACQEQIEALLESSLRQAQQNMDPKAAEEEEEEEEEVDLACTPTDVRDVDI

Molecule: (2-Pyrimidinamine, N-[5-[(4-ethyl-1-piperazinyl)methyl]-2-pyridinyl]-5-fluoro-4-[4-fluoro-2-methyl-1-(1-methylethyl)-1H-benzimidazol-6-yl] [abemaciclib]
- single-agent activity [1]: single-agent activity
- selectivity CDK4 versus CDK6 (CDK4): more selective for CDK4 than CDK6

Molecule: C[C@]12CC[C@@H]3c4ccc(O)cc4C[C@@H](CCCCCCCCC[S+]([O-])CCCC(F)(F)C(F)(F)F)[C@H]3[C@@H]1CC[C@@H]2O (stereo partly drawn) [Fulvestrant]
- clinical benefit versus anastrozole [2]: benefit over anastrozole
- efficacy in xenograft models compared with GDC-9545 (xenograft models): less efficacious

- free concentration compared with fulvestrant [3]: higher
- plasma protein binding compared with fulvestrant [3]: lower
- potency relative to fulvestrant (wild-type ER): up to 10 times
- steady-state total drug exposure relative to fulvestrant [4]: approximately 10 fold
Molecule: C[C@@H]1Cc2c([nH]c3ccccc23)[C@@H](c2c(F)cc(NC3CN(CCCF)C3)cc2F)N1CC(F)(F)CO [GDC-9545, 3-((1R,3R)-1-(2,6-difluoro-4-((1-(3-fluoropropyl)azetidin-3-yl)amino)phenyl)-3-methyl-1,3,4,9-tetrahydro-2H-pyrido[3,4-b]indol-2-yl)-2,2-difluoropropan-1-ol]
- potency relative to fulvestrant (ESR1-mutant): up to 10 times
